Data taken from the SangsterLogP compilation.

Row | SMILES | logP
1 | CSc1n[nH]c(C2CCCCC2C(=O)NCCc2ccccc2)n1 (stereo unspecified) | 3.51
2 | CSc1n[nH]c(C2C3C=CC(C3)C2C(=O)NC2CCCCC2)n1 (stereo unspecified) | 3.03
3 | CSc1n[nH]c(C2CCCCC2C(=O)NC2CCCCC2)n1 (stereo unspecified) | 3.48
4 | CSc1n[nH]c(C2CCCCC2C(=O)Nc2ccccc2Cl)n1 (stereo unspecified) | 3.84
5 | CCCNC(=O)C1CCCCC1c1nc(SC)n[nH]1 (stereo unspecified) | 2.55
6 | CCC(C)NC(=O)C1CCCCC1c1nc(SC)n[nH]1 (stereo unspecified) | 2.97
7 | CSc1n[nH]c(C2C3C=CC(C3)C2C(=O)NCCc2ccccc2)n1 (stereo unspecified) | 3.12
8 | CSc1n[nH]c(C2CCCCC2C(=O)Nc2ccc(Br)cc2)n1 (stereo unspecified) | 4.02
9 | CCCCNC(=O)C1CCCCC1c1nc(SC)n[nH]1 (stereo unspecified) | 2.97
10 | CSc1n[nH]c(C2C3C=CC(C3)C2C(=O)Nc2ccccc2Cl)n1 (stereo unspecified) | 3.44
11 | CSc1n[nH]c(C2C3C=CC(C3)C2C(=O)Nc2cccc(C)c2)n1 (stereo unspecified) | 3.29
12 | CSc1n[nH]c(C2CCCCC2C(=O)NCc2ccccc2)n1 (stereo unspecified) | 3.17
13 | CSc1n[nH]c(C2C3C=CC(C3)C2C(=O)Nc2ccc(Br)cc2)n1 (stereo unspecified) | 3.67

Second part, the molecule after the results:

Row | logP | SMILES
14 | 2.55 | CCCCNC(=O)C1C2C=CC(C2)C1c1nc(SC)n[nH]1 (stereo unspecified)
15 | 2.86 | COc1ccc(NC(=O)C2C3C=CC(C3)C2c2nc(SC)n[nH]2)cc1 (stereo unspecified)
16 | 3.19 | COc1ccc(NC(=O)C2CCCCC2c2nc(SC)n[nH]2)cc1 (stereo unspecified)
17 | 2.57 | CCC(C)NC(=O)C1C2C=CC(C2)C1c1nc(SC)n[nH]1 (stereo unspecified)
18 | 3.3 | CSc1n[nH]c(C2CCCCC2C(=O)Nc2ccccc2)n1 (stereo unspecified)
19 | 2.13 | CCCNC(=O)C1C2C=CC(C2)C1c1nc(SC)n[nH]1 (stereo unspecified)
20 | 2.91 | CSc1n[nH]c(C2C3C=CC(C3)C2C(=O)Nc2ccccc2)n1 (stereo unspecified)
21 | 2.8 | CSc1n[nH]c(C2C3C=CC(C3)C2C(=O)NCc2ccccc2)n1 (stereo unspecified)
